Measurements as given in patent publication US8802597B2, “Herbicidal pyrimidines” (E I du Pont de Nemours and Company, priority 2003, dated 2014).

Assays:
Format in all cases: in vivo
[1] = system: Surinam grass (Brachiaria decumbens); assay: Test B pre/postemergence
Summary of the method: (§1)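 Formulation: non-phytotoxic solvent blend with surfactant. Timing: preemergence on seeds, postemergence at 1- to 4-leaf (2–18 cm). Assessment: visual, 0–100 against controls, after 13–15 days' greenhouse growth.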

[2] = system: barnyardgrass (Echinochloa crus-galli); assay: Test B pre/postemergence
Summary of the method: as §1

[3] = system: cocklebur (Xanthium strumarium); assay: Test B pre/postemergence
Summary of the method: as §1

corn (Zea mays) = assay: Test B pre/postemergence
Summary of the method: as §1

[4] = system: crabgrass (Digitaria sanguinalis); assay: Test B pre/postemergence
Summary of the method: as §1

[5] = system: giant foxtail (Setaria faberii); assay: Test B pre/postemergence
Summary of the method: as §1

[6] = system: lambsquarters (Chenopodium album); assay: Test B pre/postemergence
Summary of the method: as §1

[7] = system: morningglory (Ipomoea coccinea); assay: Test B pre/postemergence
Summary of the method: as §1

[8] = system: pigweed (Amaranthus retroflexus); assay: Test B pre/postemergence
Summary of the method: as §1

[9] = system: velvetleaf (Abutilon theophrasti); assay: Test B pre/postemergence
Summary of the method: as §1

[10] = system: wheat (Triticum aestivum); assay: Test B pre/postemergence
Summary of the method: as §1

[11] = system: blackgrass (Alopecurus myosuroides); assay: Test B postemergence; conditions: for Blackgrass plant response rating: 125 g ai/ha, scale 0 to 100 (0 no effect, 100 complete control); for Plant response rating, Blackgrass: 500 g ai/ha, scale 0 to 100
Summary of the method: as §1

wild oat (Avena fatua) = assay: Test B postemergence; conditions: for Oat, Wild plant response rating: 125 g ai/ha, scale 0 to 100 (0 no effect, 100 complete control); for Plant response rating, Oat, Wild: 500 g ai/ha, scale 0 to 100
Summary of the method: as §1

[12] = system: barnyardgrass (Echinochloa crus-galli); assay: Test B flooded paddy test; conditions: Flood, 1000 g ai/ha; scale 0 (no effect) to 100 (complete control)
Summary of the method: (§2)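 Visual injury scoring (0 = no effect, 100 = complete control) versus controls made 13 to 15 days after treatment in the greenhouse. Test species were grown in flooded paddy to the 2-leaf stage: rice, barnyardgrass, umbrella sedge, duck salad.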

[13] = system: duck salad (Heteranthera limosa); assay: Test B flooded paddy test; conditions: Flood, 1000 g ai/ha; scale 0 to 100
Summary of the method: as §2

rice (Oryza sativa) = assay: Test B flooded paddy test; conditions: Flood, 1000 g ai/ha; scale 0 to 100
Summary of the method: as §2

[14] = system: umbrella sedge (Cyperus difformis); assay: Test B flooded paddy test; conditions: Flood, 1000 g ai/ha; scale 0 to 100
Summary of the method: as §2

[15] = Postemergence, 125 g ai/ha, scale 0 to 100 (0 no effect, 100 complete control)
[16] = Postemergence, 500 g ai/ha, scale 0 to 100
[17] = Preemergence, 125 g ai/ha, scale 0 to 100 (0 no effect, 100 complete control)
[18] = Preemergence, 500 g ai/ha, scale 0 to 100 (0 no effect, 100 complete control)

CCCOC(=O)c1nc(C2CC2)nc(N)c1Br [Compound 15]
100: Cocklebur plant response rating [3, 15] | Plant response rating, Cocklebur [3, 16] | Cocklebur plant response rating [3, 18] | Lambsquarters plant response rating [6, 15] | Plant response rating, Lambsquarters [6, 16] | Lambsquarters plant response rating [6, 18] | Morningglory plant response rating [7, 15] | Plant response rating, Morningglory [7, 16] | Morningglory plant response rating [7, 18] | Plant response rating, Pigweed [8, 16] | Pigweed plant response rating [8, 18] | Velvetleaf plant response rating [9, 18]
70: Plant response rating, Cocklebur [3, 17] | Plant response rating, Crabgrass [4, 17] | Plant response rating, Foxtail, Giant [5, 16] | Plant response rating, Morningglory [7, 17] | Plant response rating, Velvetleaf [9, 17] | Plant response rating, Wheat [10, 16] | Blackgrass plant response rating [11] | Plant response rating, Oat, Wild (wild oat (Avena fatua)) | Plant response rating, Rice (rice (Oryza sativa)) | Plant response rating, Sedge, Umbrella [14]
80: Plant response rating, Corn (corn (Zea mays); [16]) | Corn plant response rating (corn (Zea mays); [18]) | Foxtail, Giant plant response rating [5, 18] | Pigweed plant response rating [8, 15] | Velvetleaf plant response rating [9, 15] | Plant response rating, Blackgrass [11] | Plant response rating, Ducksalad [13]
10: Oat, Wild plant response rating (wild oat (Avena fatua))
60: Surinam Grass plant response rating [1, 15] | Plant response rating, Crabgrass [4, 16] | Wheat plant response rating [10, 18]
40: Plant response rating, Barnyardgrass [2, 17] | Foxtail, Giant plant response rating [5, 15] | Plant response rating, Foxtail, Giant [5, 17] | Wheat plant response rating [10, 15] | Plant response rating, Wheat [10, 17]
50: Corn plant response rating (corn (Zea mays); [15])
30: Plant response rating, Surinam Grass [1, 17] | Crabgrass plant response rating [4, 15]
90: Plant response rating, Surinam Grass [1, 16] | Surinam Grass plant response rating [1, 18] | Barnyardgrass plant response rating [2, 15] | Plant response rating, Barnyardgrass [2, 16] | Barnyardgrass plant response rating [2, 18] | Crabgrass plant response rating [4, 18] | Plant response rating, Lambsquarters [6, 17] | Plant response rating, Pigweed [8, 17] | Plant response rating, Velvetleaf [9, 16] | Plant response rating, Barnyardgrass [12]
20: Plant response rating, Corn (corn (Zea mays); [17])

CCCCOC(=O)c1nc(C2CC2)nc(N)c1Br [Compound 16]
70: Barnyardgrass plant response rating [2, 15] | Plant response rating, Cocklebur [3, 17] | Corn plant response rating (corn (Zea mays); [18]) | Plant response rating, Crabgrass [4, 17] | Plant response rating, Blackgrass [11] | Plant response rating, Rice (rice (Oryza sativa))
90: Plant response rating, Surinam Grass [1, 16] | Plant response rating, Barnyardgrass [2, 16] | Barnyardgrass plant response rating [2, 18] | Cocklebur plant response rating [3, 15] | Plant response rating, Morningglory [7, 17] | Pigweed plant response rating [8, 15] | Plant response rating, Pigweed [8, 17] | Pigweed plant response rating [8, 18] | Plant response rating, Velvetleaf [9, 16] | Plant response rating, Barnyardgrass [12] | Plant response rating, Ducksalad [13]
80: Surinam Grass plant response rating [1, 18] | Plant response rating, Corn (corn (Zea mays); [16]) | Plant response rating, Crabgrass [4, 16] | Plant response rating, Foxtail, Giant [5, 16] | Foxtail, Giant plant response rating [5, 18] | Velvetleaf plant response rating [9, 15] | Plant response rating, Velvetleaf [9, 17]
60: Surinam Grass plant response rating [1, 15] | Plant response rating, Wheat [10, 16] | Wheat plant response rating [10, 18] | Plant response rating, Oat, Wild (wild oat (Avena fatua)) | Plant response rating, Sedge, Umbrella [14]
10: Blackgrass plant response rating [11] | Oat, Wild plant response rating (wild oat (Avena fatua))
30: Plant response rating, Barnyardgrass [2, 17] | Corn plant response rating (corn (Zea mays); [15]) | Plant response rating, Corn (corn (Zea mays); [17]) | Crabgrass plant response rating [4, 15] | Foxtail, Giant plant response rating [5, 15] | Plant response rating, Foxtail, Giant [5, 17] | Wheat plant response rating [10, 15]
50: Plant response rating, Wheat [10, 17]
40: Plant response rating, Surinam Grass [1, 17]
100: Plant response rating, Cocklebur [3, 16] | Cocklebur plant response rating [3, 18] | Crabgrass plant response rating [4, 18] | Lambsquarters plant response rating [6, 15] | Plant response rating, Lambsquarters [6, 16] | Plant response rating, Lambsquarters [6, 17] | Lambsquarters plant response rating [6, 18] | Morningglory plant response rating [7, 15] | Plant response rating, Morningglory [7, 16] | Morningglory plant response rating [7, 18] | Plant response rating, Pigweed [8, 16] | Velvetleaf plant response rating [9, 18]

CC(C)COC(=O)c1nc(C2CC2)nc(N)c1Br [Compound 17]
60: Corn plant response rating (corn (Zea mays); [18]) | Velvetleaf plant response rating [9, 15] | Plant response rating, Wheat [10, 16] | Wheat plant response rating [10, 18]
10: Foxtail, Giant plant response rating [5, 15]
100: Cocklebur plant response rating [3, 15] | Plant response rating, Cocklebur [3, 16] | Crabgrass plant response rating [4, 18] | Lambsquarters plant response rating [6, 15] | Plant response rating, Lambsquarters [6, 16] | Lambsquarters plant response rating [6, 18] | Morningglory plant response rating [7, 15] | Plant response rating, Morningglory [7, 16] | Plant response rating, Morningglory [7, 17] | Morningglory plant response rating [7, 18] | Pigweed plant response rating [8, 18] | Plant response rating, Velvetleaf [9, 16]
50: Plant response rating, Crabgrass [4, 16] | Plant response rating, Oat, Wild (wild oat (Avena fatua)) | Plant response rating, Rice (rice (Oryza sativa)) | Plant response rating, Sedge, Umbrella [14]
90: Surinam Grass plant response rating [1, 18] | Plant response rating, Barnyardgrass [2, 16] | Cocklebur plant response rating [3, 18] | Plant response rating, Lambsquarters [6, 17] | Plant response rating, Pigweed [8, 16] | Velvetleaf plant response rating [9, 18] | Plant response rating, Ducksalad [13]
30: Surinam Grass plant response rating [1, 15] | Plant response rating, Surinam Grass [1, 17]
80: Plant response rating, Surinam Grass [1, 16] | Barnyardgrass plant response rating [2, 18] | Plant response rating, Cocklebur [3, 17] | Plant response rating, Corn (corn (Zea mays); [16]) | Plant response rating, Pigweed [8, 17] | Plant response rating, Barnyardgrass [12]
40: Plant response rating, Wheat [10, 17]
70: Plant response rating, Crabgrass [4, 17] | Plant response rating, Foxtail, Giant [5, 16] | Foxtail, Giant plant response rating [5, 18] | Pigweed plant response rating [8, 15] | Plant response rating, Velvetleaf [9, 17] | Plant response rating, Blackgrass [11]
0: Corn plant response rating (corn (Zea mays); [15]) | Plant response rating, Corn (corn (Zea mays); [17]) | Wheat plant response rating [10, 15] | Blackgrass plant response rating [11] | Oat, Wild plant response rating (wild oat (Avena fatua))
20: Barnyardgrass plant response rating [2, 15] | Plant response rating, Barnyardgrass [2, 17] | Crabgrass plant response rating [4, 15] | Plant response rating, Foxtail, Giant [5, 17]
